Read-outs that look alike come from different tables or passages of the source. Marks after values point to notes of the source that are not given here.
Columns and labels:
[1] = set-up: species or system male Sprague Dawley rats; conditions: rat, in vivo, po
Procedure: (§1) Animals treated with ATRA and 13-cis-retinoic acid prepared in Capmul at the dosage ranges enumerated in Table 6 were dosed orally once per day starting 21 days post injury. Control groups were challenged with elastase and 21 days later were treated with vehicle (Capmul solution) for 14 days. Animals were sacrificed 24 hours after the last dose by exsanguination under deep anesthesia. Blood was collected at time of exsanguination for analysis.
Quantitation of triglycerides contained in rat plasma was performed using established procedures in a contact clinical laboratory facility. Briefly, plasma triglycerides were converted to dihdroxyacetone and hydrogen peroxide by sequential treatment of plasma with lipase and glycerokinase according directions described by the manufacturer of triglycerides/GPO kit (Boehringer Mannheim #1488872). Hydrogen peroxide was quantitated colorimetrically in a Hitachi 911 Chemistry Analyzer. In rats normal triglyceride levels are between about 75 mg/dl and about 175 mg/dl.
Triglyceride values are a convenient measure of toxicity. […] Furthermore, at every dosage level tested, the triglyceride levels observed with 13-cis-retinoic acid were lower than that observed for ATRA.

[2] = tested on: rat model of elastase-induced emphysema; experiment: alveolar repair in the rat model of elastase-induced emphysema; type: in vivo, male Sprague Dawley rats; conditions: for % Alveolar Repair: starting 21 days post elastase injury, relative to elastase + vehicle
Procedure: All-trans retinoic acid (ATRA) and 13-cis-retinoic acid were evaluated for their effects on alveolar repair in the rat model of elastase-induced emphysema (Massaro et al., Nature, 1997, Vol. 3, No. 6:675; Massaro et al., U.S. Pat. No. 5,998,486). Animals were divided into treatment groups of approximately eight. Lung inflammation and alveolar damage was induced in male Sprague Dawley rats by a single instillation of about 2 U/gram body mass of pancreatic elastase (porcine derived, Calbiochem).
as §1
The lungs were inflated with 10% neutral buffered formalin by intratracheal instillation at a constant rate (1 ml/gram body mass/min). The lung was excised and immersed in fixative for 24 hours prior to processing. Alveolar measurements were made in four regions of the lung/rat. The mean value/treatment group was determined by summing the average area/rat for all eight rats relative to the elastase+ vehicle treated group. […] Standard methods were used to prepare 5 μm paraffin sections. Sections were stained with Hematoxylin and Eosin. Computerized Morphometric analysis was performed to determine the average alveolar size and alveolar number.

[3] = oral dose 0.1 mg/kg once per day
[4] = oral dose 1.0 mg/kg once per day
[5] = oral dose 10.0 mg/kg once per day

| Triglyceride ([1]; 0.001 mg/kg) | Triglyceride ([1]; 0.01 mg/kg) | Triglyceride ([1]; 0.1 mg/kg) | Triglyceride ([1]; 1 mg/kg) | Triglyceride ([1]; 10 mg/kg) | Triglyceride ([1]; 0.3 mg/kg) | Triglyceride ([1]; 3 mg/kg) | SMILES | statistical significance of alveolar repair relative to elastase treated control ([2]; dosage of 0.001 mg/kg) | statistical significance of alveolar repair relative to elastase treated control ([2]; dosage range from 10.0 mg/kg to as low as 0.01 mg/kg) | % Alveolar Repair ([2]; oral dose 0.001 mg/kg once per day) | % Alveolar Repair ([2]; oral dose 0.01 mg/kg once per day) | % Alveolar Repair [2, 3] | % Alveolar Repair [2, 4] | % Alveolar Repair [2, 5] | statistical significance of alveolar repair relative to elastase treated control ([2]; dosages below 0.3 mg/kg) | % Alveolar Repair ([2]; oral dose 0.3 mg/kg once per day) | % Alveolar Repair ([2]; oral dose 3.0 mg/kg once per day) |
| --- | --- | --- | --- | --- | --- | --- | --- | --- | --- | --- | --- | --- | --- | --- | --- | --- | --- |
| 125 mg/dL | 73 mg/dL | 82 mg/dL | 128 mg/dL | 147 mg/dL | – | – | CC1=C(/C=C/C(C)=C/C=C/C(C)=C\C(=O)O)C(C)(C)CCC1 [13-cis-retinoic acid, (13Z)-retinoic acid] | statistically insignificant | statistically significant | 12* % | 38% | 30% | 45% | 56% | – | – | – |
| – | – | 152 mg/dL | 175 mg/dL | 378 mg/dL | 149 mg/dL | 307 mg/dL | CC1=C(/C=C/C(C)=C/C=C/C(C)=C/C(=O)O)C(C)(C)CCC1 [ATRA, All-trans retinoic acid] | – | – | – | – | 8.8* % | 45% | 53% | not statistically significant | 30* % | 47% |

Source: patent US6794416B2, “Methods, compositions and modes of delivery for the treatment of emphysema using 13-cis-retinoic acid” (Syntex (U.S.A.) LLC, priority 2000, dated 2004)
